Assay results from patent US12427151B2, “Compositions and method of treating cancer” (The Regents of the University of California, priority 2017, dated 2025).
≈ marks a conversion by molar mass, not a printed value.

Experiments:
GBS DK23 = assay: MBC determination; format: cell-based, group B Streptococcus; conditions: Streptococcus, 3-log reduction, 24 hour, 37° C., half strength MHB in PBS
Experimental: To determine MBC, bacteria were cultured in TSB (Staphylococcus), THB (Streptococcus) or Nutrient broth (P. aeruginosa and E. coli) by reaching exponential phase (OD600=0.5-0.8). […] After incubation, the number of viable bacteria was measured by counting CFU after spreading 10-fold serial dilutions of bacteria on suitable agar plates. MBC was determined as a 3-log reduction (99.9%) of viable bacteria after 24 hour incubation.
Antimicrobial activity of 6-HAP in vitro. To examine the specificity of 6-HAP for various bacteria, minimal bactericidal concentrations (MBCs) were determined according to dose-dependent killing curves at 24 hrs of incubation in vitro (Table 1). 6-HAP killed or suppressed growth of several major skin pathogens including GAS (NZ131), group B Streptococcus (GBS) (DK23), methicillin-sensitive S. aureus (ATCC35556), methicillin-resistant S. aureus (MRSA) strains (USA300 and Sanger252), Pseudomonas aeruginosa (P. aeruginosa) (ATCC14213) in vitro. […] S. epidermidis (ATCC12228) was also resistant to 6-HAP.

L5178 lymphoma = assay: Cell proliferation assay (BrdU incorporation); format: cell-based, mouse; conditions: L5178, 4-hr incubation
Experimental: (§1) Proliferative activity of tumor cell line, L5178 (a), YAC-1 lymphoma (b), B16F10 melanoma (c) after 4-hr incubation in suitable media containing indicated concentrations of 6-HAP or mitomycin C (10 μg/mL). Proliferative activity of cells was determined by monitoring BrdU incorporation. The data represent mean±SE of four individual experiments.
(§2) Cell culture and cell proliferation assay. B16F10 mouse melanoma, Pam212, L5178 and YAC-1 mouse […] cell lines were obtained from American Type Culture Collection. Pam212, L5178 and YAC-1 cell lines were maintained in RPMI-1640 supplemented with sodium pyruvate (1 mM), nonessential amino acids (0.1 mM), penicillin (100 unit/mL), streptomycin (100 μg/mL) and 10% heat-inactivated fetal bovine serum (FBS) or horse serum at 37° C. under atmosphere of 5% (v/v) CO2 in air. B16F10 cell line was maintained in DMEM supplemented with penicillin (100 unit/mL), streptomycin (100 μg/mL) and 10% heat-inactivated FBS. NHEKs were obtained from Invitrogen (Life technologies, Grand Island, NY) and maintained in EpiLife medium (Life technologies) supplemented with 60 μM Calcium, epidermal growth factors, penicillin and streptomycin. After 4-hr (tumor cell lines) or 24-hr (NHEK) incubation with 6-HAP, proliferative activity of cells was colorimetrically determined by monitoring BrdU incorporation with Cell Proliferation kit according to the manual (Roche).

YAC-1 lymphoma = assay: Cell proliferation assay (BrdU incorporation); format: cell-based, mouse; conditions: YAC-1, 4-hr incubation
Experimental: as §1, §2

B16F10 melanoma = assay: Cell proliferation assay (BrdU incorporation); format: cell-based, mouse; conditions: B16F10, 4-hr incubation
Experimental: as §1, §2

[1] = test system: normal human keratinocytes (NHEK); assay: Cell proliferation assay (BrdU incorporation); format: cell-based; conditions: 24-hr incubation, until a very high dose (100 μg/mL)
Experimental: (a-b) Selective antiproliferative activity of 6-HAP against Pam212 squamous cell carcinoma, but not against normal keratinocytes. BrdU incorporation into Pam212 cells (b) or NHEKs (b) after 4-hr or 24-hr incubation, respectively, in suitable media containing indicated concentrations of 6-HAP or mitomycin C (10 μg/mL) (a). (c) Expression of mARC1 and mARC2 in NHEKs, squamous cell carcinoma (Pam212), melanoma (B16F10) and lymphoma cell lines (L5178). To compare relative expression level in each cells, data was shown as relative to GAPDH expression. (d) Expression of mARC1 and mARC2 in NHEKs treated with control siRNA, mARCI siRNA and mARC2 siRNA. (e) Effect of gene silencing with mARC1 and mARC2 siRNA on sensitivity to 6-HAP in NHEKs. NHEKs treated with each siRNA were incubated for 48 hrs and then incubated with 10 μg/mL of 6-HAP for 24 hrs.
Cell culture and cell proliferation assay. B16F10 mouse melanoma, Pam212, L5178 and YAC-1 mouse […] cell lines were obtained from American Type Culture Collection. […] After 4-hr (tumor cell lines) or 24-hr (NHEK) incubation with 6-HAP, proliferative activity of cells was colorimetrically determined by monitoring BrdU incorporation with Cell Proliferation kit according to the manual (Roche).

Structure (SMILES): ONc1ncnc2nc[nH]c12 [6-HAP, 6-N-hydroxyaminopurine]
- MBC (GBS DK23): 0.781 µg/mL (≈ 5.17 µM)
- BrdU incorporation (L5178 lymphoma): inhibited
- BrdU incorporation (YAC-1 lymphoma): inhibited
- BrdU incorporation (B16F10 melanoma): inhibited
- BrdU incorporation [1]: not affected
